Laboratory results from ChEMBL document CHEMBL1201862, “PubChem BioAssay data set” (2004).
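1) Cells in 96-well plates. 2) Compound, 48 h, 5 concentrations. 3) Linear interpolation between surrounding doses. 4) Unreached endpoint = highest concentration. GI50 marks 50% less growth.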 The source made the active and inactive calls. Rule as the data show it: active = GI50 up to about 1.1 µM and inactive = higher.

Legend:
Assay in all cases: growth of human tumour cells (NCI), 48 h
[1] = system: CAKI-1
[2] = system: EKVX
[3] = system: HCT-15
[4] = system: HOP-62
[5] = system: HOP-92
[6] = system: Hs-578T
[7] = system: IGROV-1
[8] = system: K562
[9] = system: NCI-H23
[10] = system: NCI-H522
[11] = system: NCI/ADR-RES
[12] = system: OVCAR-5
[13] = system: SF-268
[14] = system: SF-539
[15] = system: SK-MEL-28
[16] = system: SNB-19
[17] = system: SR
[18] = system: UACC-257
[19] = system: UO-31

Measured: GI50

CC(=O)OC1CN2CCC1CC2 (stereo not given) [ACECLIDINE]
> 100 µM: [3]
inactive: [1] > 100 µM | [2] > 100 µM | [4] > 100 µM | [5] > 100 µM | [6] > 100 µM | [7] > 100 µM | [8] > 100 µM | [9] > 100 µM | [10] > 100 µM | [11] > 100 µM | [12] > 100 µM | [13] > 100 µM | [14] > 100 µM | [15] > 100 µM | [16] > 100 µM | [17] > 100 µM | [18] > 100 µM | [19] > 100 µM

O=C(O)c1ccc(-c2nc3cc(Cl)ccc3[nH]2)cc1
> 100 µM: [3]
inactive: [1] > 100 µM | [2] > 100 µM | [4] > 100 µM | [5] > 100 µM | [6] > 100 µM | [7] > 100 µM | [8] > 100 µM | [10] > 100 µM | [11] > 100 µM | [14] > 100 µM | [16] > 100 µM | [17] > 100 µM | [19] > 100 µM

CC1=NN(c2nc(N)nc(COCc3nc(N)nc(N4N=C(C)CC4(C)C)n3)n2)C(C)(C)C1
inactive: [1] > 100 µM | [2] > 100 µM | [4] > 100 µM | [5] > 100 µM | [6] > 100 µM | [7] > 100 µM | [8] > 100 µM | [9] > 100 µM | [10] > 100 µM | [11] > 100 µM | [12] > 100 µM | [13] > 100 µM | [14] > 100 µM | [15] > 100 µM | [16] > 100 µM | [17] > 100 µM | [18] > 100 µM | [19] > 100 µM
> 100 µM: [3]

O=S1(=O)c2cnccc2N=C(NCc2ccccc2)N1c1ccccc1
inactive: [1] > 100 µM | [2] > 100 µM | [4] > 100 µM | [5] 57.5 µM | [6] 58.3 µM | [7] 55.1 µM | [8] > 100 µM | [9] 64.3 µM | [10] 42.1 µM | [11] 68.1 µM | [12] > 100 µM | [13] > 100 µM | [14] > 100 µM | [15] > 100 µM | [16] > 100 µM | [17] 58.6 µM | [18] > 100 µM | [19] > 100 µM
74.5 µM: [3]

Oc1nnc(-c2ccc(F)cc2)cc1-c1ccccc1
inactive: [1] 69.5 µM | [2] 42.9 µM | [5] > 100 µM | [6] 48.3 µM | [7] 72.8 µM | [8] > 100 µM | [9] > 100 µM | [11] > 100 µM | [12] > 100 µM | [13] 46.1 µM | [14] 35.9 µM | [15] 83.9 µM | [16] 44.8 µM | [17] > 100 µM | [18] > 100 µM
> 100 µM: [3]

CCNC(=S)Nc1c(C#N)c2n(c1C(=O)OCC)CCCCC2
> 100 µM: [3]
inactive: [1] > 100 µM | [2] > 100 µM | [4] 35.2 µM | [5] 42.3 µM | [6] 35.3 µM | [7] > 100 µM | [8] > 100 µM | [9] 69 µM | [11] > 100 µM | [13] 62.7 µM | [14] 64.7 µM | [15] > 100 µM | [16] > 100 µM | [17] > 100 µM | [18] > 100 µM | [19] > 100 µM

OC(c1cccnc1)C(F)(F)c1nc2ccccc2o1 (stereo not given)
inactive: [1] > 100 µM | [2] > 100 µM | [4] > 100 µM | [5] > 100 µM | [6] > 100 µM | [7] > 100 µM | [8] 56.5 µM | [9] > 100 µM | [11] > 100 µM | [13] > 100 µM | [14] > 100 µM | [15] > 100 µM | [16] > 100 µM | [17] > 100 µM | [18] > 100 µM | [19] > 100 µM
> 100 µM: [3]

Cc1ccc(N(C(=O)CC(=O)N2N=C(c3ccccc3)C(/N=N/c3ccc([N+](=O)[O-])cc3)C2=O)C(=O)c2ccc(Cl)cc2)cc1 (stereo not given)
13.2 µM: [3]
inactive: [1] 28.4 µM | [2] 99.5 µM | [4] 10.3 µM | [5] 22.5 µM | [7] 16.8 µM | [8] 24.7 µM | [9] 5.98 µM | [10] 3.65 µM | [12] 20.5 µM | [13] 9.04 µM | [14] 19.8 µM | [15] 48.5 µM | [16] 17.3 µM | [17] 1.66 µM | [18] 30.9 µM | [19] 16.3 µM

COc1ccc(C2SCC(=O)N2c2ccc(-n3c(-c4ccccc4)nc4ccccc4c3=O)cc2)cc1 (stereo not given)
inactive: [1] > 100 µM | [2] > 100 µM | [4] > 100 µM | [5] 46.7 µM | [6] > 10 µM | [7] > 100 µM | [8] > 100 µM | [9] > 100 µM | [10] 36.4 µM | [11] 8.89 µM | [12] > 100 µM | [13] > 100 µM | [14] > 100 µM | [15] > 100 µM | [16] > 100 µM | [17] 45 µM | [18] > 100 µM | [19] 25.3 µM
48.5 µM: [3]

CC(C)CC(=O)NS(=O)(=O)c1ccccc1
inactive: [1] > 100 µM | [2] > 100 µM | [4] > 100 µM | [5] > 100 µM | [7] > 100 µM | [8] > 100 µM | [9] > 100 µM | [10] > 100 µM | [12] > 100 µM | [13] > 100 µM | [14] > 100 µM | [15] > 100 µM | [16] > 100 µM | [17] > 100 µM | [18] > 100 µM | [19] > 100 µM
> 100 µM: [3]

Clc1ccc(Cc2nc3cc4ccccc4cc3[nH]2)cc1Cl
inactive: [1] 18.3 µM | [2] 29.2 µM | [4] 26.1 µM | [5] 11.7 µM | [6] 21.3 µM | [7] 3.01 µM | [8] 6.15 µM | [9] 27.3 µM | [10] 12.7 µM | [11] 28.7 µM | [12] 32.5 µM | [13] 15.9 µM | [14] 15.5 µM | [15] 12.6 µM | [16] 18.7 µM | [17] 7.6 µM | [18] 18.1 µM | [19] 14 µM
15.2 µM: [3]

CC(C)(C)C1=CC(=N/N=c2\scc(-c3ccccc3)n2-c2ccccc2)C=C(C(C)(C)C)C1=O
> 100 µM: [3]
inactive: [1] > 100 µM | [2] > 100 µM | [4] > 100 µM | [5] > 100 µM | [7] > 100 µM | [8] > 100 µM | [9] > 100 µM | [10] > 100 µM | [12] > 100 µM | [13] > 100 µM | [14] > 100 µM | [15] > 100 µM | [16] > 100 µM | [17] > 100 µM | [18] > 100 µM | [19] > 100 µM
